{"source": "the Kinase Knowledgebase extract (Sharma et al. 2016)", "biological_target": "CDK2 (UniProt P24941)", "assay": "Enzyme Assay"}
{"compound": "CC(=O)c1c(C)c2cnc(Nc3ccc(N4CCNCC4)cc3)nc2n(C2CCCC2)c1=O", "values": [{"measurement": "IC50", "result": 0.233, "unit": "µM"}]}
{"compound": "CCOC(=O)c1cc2cnc(Nc3ccc(N4CCNCC4)cc3)nc2n(C2CCCC2)c1=O", "values": [{"measurement": "IC50", "result": 5.95, "unit": "µM"}]}
{"compound": "O=c1ccc2cnc(Nc3ccc(N4CCNCC4)cc3)nc2n1C1CCCCC1", "values": [{"measurement": "IC50", "result": 0.119, "unit": "µM"}]}
{"compound": "Cc1c(Br)c(=O)n(C2CCCC2)c2nc(Nc3ccc(N4CC(C)NC(C)C4)cc3)ncc12", "note": "(stereo not drawn)", "values": [{"measurement": "IC50", "result": 1.86, "unit": "µM"}]}
{"compound": "CC(=O)c1cc2cnc(Nc3ccc(N4CCNCC4)cc3)nc2n(C2CCCC2)c1=O", "values": [{"measurement": "IC50", "result": 0.556, "unit": "µM"}]}
{"compound": "O=c1c(F)cc2cnc(Nc3ccc(N4CCNCC4)cc3)nc2n1C1CCCC1", "values": [{"measurement": "IC50", "result": 0.139, "unit": "µM"}]}
{"compound": "O=c1ccc2cnc(Nc3ccc(N4CCNCC4)cc3)nc2n1C1CCCC1", "values": [{"measurement": "IC50", "result": 0.024, "unit": "µM"}]}
{"compound": "Nc1cc2cnc(Nc3ccc(N4CCNCC4)cc3)nc2n(C2CCCC2)c1=O", "values": [{"measurement": "IC50", "result": 0.095, "unit": "µM"}]}
{"compound": "CCc1cc2cnc(Nc3ccc(N4CCNCC4)cc3)nc2n(C2CCCC2)c1=O", "values": [{"measurement": "IC50", "result": 0.142, "unit": "µM"}]}
{"compound": "CCOCCc1cc2cnc(Nc3ccc(N4CCNCC4)cc3)nc2n(C2CCCC2)c1=O", "values": [{"measurement": "IC50", "result": 0.205, "unit": "µM"}]}
{"compound": "CCc1cc2cnc(Nc3ccc(N4CCC(O)CC4)cc3)nc2n(C2CCCC2)c1=O", "values": [{"measurement": "IC50", "result": 0.179, "unit": "µM"}]}
{"compound": "CC(C)COc1cc2cnc(Nc3ccc(N4CCNCC4)cc3)nc2n(C2CCCC2)c1=O", "values": [{"measurement": "IC50", "result": 3.15, "unit": "µM"}]}
{"compound": "CCOCCOc1cc2cnc(Nc3ccc(N4CCNCC4)cc3)nc2n(C2CCCC2)c1=O", "values": [{"measurement": "IC50", "result": "> 5", "unit": "µM"}]}
{"compound": "Cc1c(Br)c(=O)n(C2CCCC2)c2nc(Nc3ccc(N4CCNC(C)(C)C4)cc3)ncc12", "values": [{"measurement": "IC50", "result": 1.33, "unit": "µM"}]}
{"compound": "CC(C)n1c(=O)ccc2cnc(Nc3ccc(N4CCNCC4)cc3)nc21", "values": [{"measurement": "IC50", "result": 0.084, "unit": "µM"}]}
{"compound": "O=c1c(Cc2ccccc2)cc2cnc(Nc3ccc(N4CCNCC4)cc3)nc2n1C1CCCC1", "values": [{"measurement": "IC50", "result": "> 5", "unit": "µM"}]}
{"compound": "O=c1c(Br)cc2cnc(Nc3ccccc3)nc2n1C1CCCC1", "values": [{"measurement": "IC50", "result": 0.08, "unit": "µM"}]}
{"compound": "Cc1cc2cnc(Nc3ccc(N4CCNCC4)cc3)nc2n(C2CCCC2)c1=O", "values": [{"measurement": "IC50", "result": 0.059, "unit": "µM"}]}
